Columns and labels:
Assay in all cases: FRET-based coupled-enzyme protein kinase inhibition assay
Format in all cases: biochemical
Settings in all cases: compound at 10 µM, 1% DMSO
PRKCB1 (PKC beta I) = PRKCB1 (PKC beta I) (Homo sapiens, UniProt P05771)
Description: (§1) A biochemical assay was then performed in order to measure the protein kinase inhibition. It employed a fluorescence-based coupled-enzyme format and was based on the differential sensitivity of phosphorylated and non-phosphorylated peptides to proteolytic cleavage.
(§2) Peptide substrates were labeled with two fluorophores. The two fluorohores used were coumarin (donor) and fluorecein (acceptor), and each of the peptides was bearing one at one end, and one at the other end, which made up fluorescence resonance energy transfer (FRET) pair peptides.
(§3) In a primary reaction, the FRET-peptides were submitted to a phosphorylation reaction, in which one of adenosine triphosphate (ATP)'s phosphate groups was transferred to the peptide in the presence of kinase. When kinase inhibition takes place, the peptide will not be phosphorylated. In a secondary reaction, both the phosphorylated FRET-peptides and the non-phosphorylated FRET-peptides were reacted with a development reagent. It has been observed that non-phosphorylated FRET-peptides were cleaved, whereas the phosphorylted FRET-peptide remained intact.
(§4) Cleavage disrupts FRET between the donor (i.e., coumarin) and acceptor (i.e., fluorescein) fluorophores on the FRET-peptide, whereas uncleaved, phosphorylated FRET-peptides maintain FRET. A ratiometric method, which calculates the Emission Ratio of donor emission to acceptor emission after excitation of the donor fluorophore at 400 nm, is used to quantitate reaction progress, as shown in the equation below. [formula]
(§5) A significant benefit of this ratiometric method for quantitating reaction progress is the elimination of well-to-well variations in FRET-peptide concentration and signal intensities. As a result, the assay yields very high Z'factor values (>0.7) at a low percent phosphorylation. Both cleaved and uncleaved FRET-peptides contribute to the fluorescence signals and therefore to the Emission Ratio. The extent of phosphorylation of the FRET-peptide can be calculated from the Emission Ratio. The Emission Ratio will remain low if the FRET-peptide is phosphorylated (i.e., no kinase inhibition) and will be high if the FRET-peptide is non-phosphorylated (i.e., kinase inhibition).
(§6) The Test Compounds were screened in 1% DMSO. For 10 point titrations, 3-fold serial dilutions were prepared from the starting concentration.
(§7) All Peptide/Kinase Mixtures were diluted to a 2X working concentration in the appropriate Kinase Buffer (50 mM HEPES pH 7.5, 0.01% BRIJ-35, 10 mM MgCl2, 1 mM […]).
(§8) All ATP Solutions were diluted to a 4X working concentration in Kinase Buffer. ATP Km apparent was previously determined using another assay.
The Development Reagent was diluted in Development Buffer. For 5 mL 10X Novel PKC Lipid Mix, 10X Novel PKC Lipid Mix being composed of 2 mg/ml Phosphatidyl Serine, 0.2 mg/ml DAG in 20 mM HEPES, pH 7.4, 0.3% CHAPS, 10 mg of Phosphatidyl Serine (Avanti Polar Lipids Part# 8400032C or 840039C) and 1 mg DAG (Avanti Polar Lipids Part# 800811C) were added to a glass tube.
The chloroform was removed from the lipid mixture by evaporating to a clear, thin film under a stream of nitrogen. Continuous rotation of the tube, at an angle to ensure maximum surface area of the lipid solution, has promoted the thinnest film. 5mL resuspension buffer, 20 mM HEPES, 0.3% CHAPS, pH 7.4, were added to the dried lipid mix, which was then gently heated to 50-60°C for 1-2 minutes and vortexed in short intervals until the lipids are dissolved to a clear or slightly hazy solution. The lipids were typically in solution after 2-3 heat-vortex cycles. The solution was cooled to room temperature, aliquoted into single use volumes and stored at -20 °C.
(§9) 2.5 µL - 4X Test Compound or 100 nL 100X plus 2.4 µL kinase buffer were mixed together with 2. 5 µL - 2X Peptide/Kinase Mixture and 3. 2.5 µL - 4X ATP Solution.
The solution was plate-shaked for 30 seconds, then incubated 60 minutes at room temperature for kinase reaction. […]

ROCK1 = ROCK1 (Homo sapiens, UniProt Q13464)
Description: as §1, §2, §3, §4, §5, §6, §7, §8, §9
(§10) The solution was plate-shaked for 30 seconds, then incubated 60 minutes at room temperature for kinase reaction. 5 µL of Development Reagent Solution were then added, followed by a 30-second plate shake and a 60-minute Development Reaction incubation at room temperature. The results were read on a fluorescence plate reader and the data was analyzed.
(§11) The compounds that show the highest Emission Ratio are the ones that also show the highest protein kinase inhibition properties.

PRKACA (PKA) = PRKACA (PKA) (Homo sapiens, UniProt P17612)
Description: as §1, §2, §3, §4, §5, §6, §7, §8, §9, §10, §11

FLT3 = target: T1, FLT3 (Homo sapiens, UniProt P36888)
T1 sequence (P36888 27-993): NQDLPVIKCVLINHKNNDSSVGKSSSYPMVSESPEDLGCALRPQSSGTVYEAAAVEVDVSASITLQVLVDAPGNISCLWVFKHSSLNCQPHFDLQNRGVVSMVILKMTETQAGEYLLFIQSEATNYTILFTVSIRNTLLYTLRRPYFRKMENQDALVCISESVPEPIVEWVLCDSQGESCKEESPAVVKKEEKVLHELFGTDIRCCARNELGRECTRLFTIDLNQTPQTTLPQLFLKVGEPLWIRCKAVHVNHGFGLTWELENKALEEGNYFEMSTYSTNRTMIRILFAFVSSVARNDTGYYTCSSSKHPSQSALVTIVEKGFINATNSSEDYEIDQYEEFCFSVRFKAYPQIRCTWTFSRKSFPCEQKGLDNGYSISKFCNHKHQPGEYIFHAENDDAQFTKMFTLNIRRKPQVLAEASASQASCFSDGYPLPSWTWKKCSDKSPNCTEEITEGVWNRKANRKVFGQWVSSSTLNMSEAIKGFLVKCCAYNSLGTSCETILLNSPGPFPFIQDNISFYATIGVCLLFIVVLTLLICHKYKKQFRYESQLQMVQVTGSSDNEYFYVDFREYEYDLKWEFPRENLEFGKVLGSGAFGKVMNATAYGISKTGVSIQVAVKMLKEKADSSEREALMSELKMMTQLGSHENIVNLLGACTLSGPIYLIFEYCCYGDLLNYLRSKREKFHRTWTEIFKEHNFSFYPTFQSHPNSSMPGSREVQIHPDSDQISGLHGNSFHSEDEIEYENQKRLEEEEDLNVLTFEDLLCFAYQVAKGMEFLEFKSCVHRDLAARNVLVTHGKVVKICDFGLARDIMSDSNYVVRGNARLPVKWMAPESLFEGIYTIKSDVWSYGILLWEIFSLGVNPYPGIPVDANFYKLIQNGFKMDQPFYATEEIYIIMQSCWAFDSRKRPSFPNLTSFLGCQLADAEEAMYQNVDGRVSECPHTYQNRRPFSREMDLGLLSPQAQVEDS
Description: as §1, §2, §3, §4, §5, §6, §7, §8, §9, §10, §11

INSR = INSR (Homo sapiens, UniProt P06213)
Description: as §1, §2, §3, §4, §5, §6, §7, §8, §9, §10, §11

KDR (VEGFR2) = KDR (VEGFR2) (Homo sapiens, UniProt P35968)
Description: as §1, §2, §3, §4, §5, §6, §7, §8, §9, §10, §11

RPS6KA3 (RSK2) = RPS6KA3 (RSK2) (Homo sapiens, UniProt P51812)
Description: as §1, §2, §3, §4, §5, §6, §7, §8, §9, §10, §11

Sequence of RPS6KA3 (RSK2) (P51812 whole entry, species assumed): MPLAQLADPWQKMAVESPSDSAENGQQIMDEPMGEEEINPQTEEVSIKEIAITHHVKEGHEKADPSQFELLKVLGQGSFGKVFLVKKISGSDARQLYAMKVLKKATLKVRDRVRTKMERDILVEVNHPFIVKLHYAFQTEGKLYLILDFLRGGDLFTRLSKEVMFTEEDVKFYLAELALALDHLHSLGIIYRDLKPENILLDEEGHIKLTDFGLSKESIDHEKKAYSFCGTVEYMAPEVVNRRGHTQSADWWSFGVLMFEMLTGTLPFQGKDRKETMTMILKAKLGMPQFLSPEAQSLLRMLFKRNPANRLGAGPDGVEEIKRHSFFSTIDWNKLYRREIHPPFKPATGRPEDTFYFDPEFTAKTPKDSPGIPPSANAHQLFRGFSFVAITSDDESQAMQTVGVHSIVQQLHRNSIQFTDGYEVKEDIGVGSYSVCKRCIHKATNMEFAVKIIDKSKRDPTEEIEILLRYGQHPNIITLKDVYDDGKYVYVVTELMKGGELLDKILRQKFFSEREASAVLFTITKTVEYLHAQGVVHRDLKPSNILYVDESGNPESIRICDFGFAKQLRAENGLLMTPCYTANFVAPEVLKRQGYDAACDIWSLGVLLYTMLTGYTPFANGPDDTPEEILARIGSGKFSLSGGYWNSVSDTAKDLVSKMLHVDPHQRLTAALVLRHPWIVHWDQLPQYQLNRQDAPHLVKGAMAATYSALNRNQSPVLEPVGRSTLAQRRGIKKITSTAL
Sequence of INSR (P06213 28-1382, species assumed): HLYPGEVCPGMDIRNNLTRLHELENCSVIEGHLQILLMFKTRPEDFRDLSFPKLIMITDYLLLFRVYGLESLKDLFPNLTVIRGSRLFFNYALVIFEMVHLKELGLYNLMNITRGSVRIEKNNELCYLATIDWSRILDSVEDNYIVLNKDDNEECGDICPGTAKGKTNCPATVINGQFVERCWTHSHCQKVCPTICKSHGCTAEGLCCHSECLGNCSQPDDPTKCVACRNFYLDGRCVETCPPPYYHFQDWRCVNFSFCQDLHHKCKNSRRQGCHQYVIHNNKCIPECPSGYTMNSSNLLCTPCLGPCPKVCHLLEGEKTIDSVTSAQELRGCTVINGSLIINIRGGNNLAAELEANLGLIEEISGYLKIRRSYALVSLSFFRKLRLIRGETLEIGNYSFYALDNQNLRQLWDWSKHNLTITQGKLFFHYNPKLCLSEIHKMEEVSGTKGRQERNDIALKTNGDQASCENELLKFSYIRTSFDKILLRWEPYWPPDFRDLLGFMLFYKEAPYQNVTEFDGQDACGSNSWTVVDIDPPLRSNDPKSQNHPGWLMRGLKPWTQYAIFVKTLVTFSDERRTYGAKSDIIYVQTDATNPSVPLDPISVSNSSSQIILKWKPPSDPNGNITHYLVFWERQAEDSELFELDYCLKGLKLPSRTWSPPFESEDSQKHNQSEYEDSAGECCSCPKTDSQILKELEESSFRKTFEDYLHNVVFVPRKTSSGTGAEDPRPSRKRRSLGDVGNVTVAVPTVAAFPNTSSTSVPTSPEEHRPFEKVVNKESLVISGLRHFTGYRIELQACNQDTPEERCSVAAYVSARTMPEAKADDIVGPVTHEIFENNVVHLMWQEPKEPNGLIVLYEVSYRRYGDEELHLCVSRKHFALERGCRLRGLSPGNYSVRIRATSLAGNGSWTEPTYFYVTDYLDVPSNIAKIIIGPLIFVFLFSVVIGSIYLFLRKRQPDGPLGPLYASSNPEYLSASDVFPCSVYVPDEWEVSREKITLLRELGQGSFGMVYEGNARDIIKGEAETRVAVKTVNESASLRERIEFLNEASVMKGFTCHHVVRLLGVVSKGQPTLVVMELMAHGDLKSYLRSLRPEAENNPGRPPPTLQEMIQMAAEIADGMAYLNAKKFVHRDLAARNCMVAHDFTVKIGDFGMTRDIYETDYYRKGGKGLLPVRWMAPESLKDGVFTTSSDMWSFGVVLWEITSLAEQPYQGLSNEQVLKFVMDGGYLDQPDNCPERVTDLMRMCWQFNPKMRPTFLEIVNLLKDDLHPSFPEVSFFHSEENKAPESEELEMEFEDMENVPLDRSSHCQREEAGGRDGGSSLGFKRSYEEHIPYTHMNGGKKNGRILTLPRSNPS
Sequence of KDR (VEGFR2) (P35968 20-1356, species assumed): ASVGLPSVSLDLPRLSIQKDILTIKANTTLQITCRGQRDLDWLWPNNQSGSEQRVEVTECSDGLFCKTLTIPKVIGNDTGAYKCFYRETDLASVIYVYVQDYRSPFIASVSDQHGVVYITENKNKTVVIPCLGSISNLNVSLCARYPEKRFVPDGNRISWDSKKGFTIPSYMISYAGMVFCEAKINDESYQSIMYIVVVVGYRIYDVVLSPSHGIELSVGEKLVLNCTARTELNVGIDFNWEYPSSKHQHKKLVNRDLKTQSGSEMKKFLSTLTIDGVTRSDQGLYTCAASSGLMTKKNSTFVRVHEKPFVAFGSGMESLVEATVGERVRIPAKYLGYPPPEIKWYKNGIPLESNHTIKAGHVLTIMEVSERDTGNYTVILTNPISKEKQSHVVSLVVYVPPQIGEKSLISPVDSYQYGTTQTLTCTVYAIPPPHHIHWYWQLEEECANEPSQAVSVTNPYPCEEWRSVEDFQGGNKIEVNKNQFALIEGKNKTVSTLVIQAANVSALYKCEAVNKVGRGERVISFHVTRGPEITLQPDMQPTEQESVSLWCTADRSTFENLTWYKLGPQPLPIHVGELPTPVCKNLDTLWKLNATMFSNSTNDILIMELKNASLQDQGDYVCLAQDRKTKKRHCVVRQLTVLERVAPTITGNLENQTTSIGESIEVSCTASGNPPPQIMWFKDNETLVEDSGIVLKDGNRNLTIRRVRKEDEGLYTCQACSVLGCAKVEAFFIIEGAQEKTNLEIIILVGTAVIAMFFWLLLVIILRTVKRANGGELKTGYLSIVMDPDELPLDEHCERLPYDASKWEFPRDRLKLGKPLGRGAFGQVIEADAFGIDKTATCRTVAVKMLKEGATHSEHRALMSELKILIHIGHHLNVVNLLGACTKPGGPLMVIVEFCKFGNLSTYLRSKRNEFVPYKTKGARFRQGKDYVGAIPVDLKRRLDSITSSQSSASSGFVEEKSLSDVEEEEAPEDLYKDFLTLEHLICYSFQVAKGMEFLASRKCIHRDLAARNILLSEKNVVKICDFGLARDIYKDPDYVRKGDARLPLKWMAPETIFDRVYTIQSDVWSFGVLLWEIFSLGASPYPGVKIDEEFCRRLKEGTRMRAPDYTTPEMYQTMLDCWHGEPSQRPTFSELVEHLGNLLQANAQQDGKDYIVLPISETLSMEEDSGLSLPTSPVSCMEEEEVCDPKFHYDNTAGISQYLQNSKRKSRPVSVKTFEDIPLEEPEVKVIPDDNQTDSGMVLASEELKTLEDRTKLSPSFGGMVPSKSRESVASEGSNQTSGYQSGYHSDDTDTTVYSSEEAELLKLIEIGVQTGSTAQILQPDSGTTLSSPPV
Sequence of ROCK1 (Q13464 whole entry, species assumed): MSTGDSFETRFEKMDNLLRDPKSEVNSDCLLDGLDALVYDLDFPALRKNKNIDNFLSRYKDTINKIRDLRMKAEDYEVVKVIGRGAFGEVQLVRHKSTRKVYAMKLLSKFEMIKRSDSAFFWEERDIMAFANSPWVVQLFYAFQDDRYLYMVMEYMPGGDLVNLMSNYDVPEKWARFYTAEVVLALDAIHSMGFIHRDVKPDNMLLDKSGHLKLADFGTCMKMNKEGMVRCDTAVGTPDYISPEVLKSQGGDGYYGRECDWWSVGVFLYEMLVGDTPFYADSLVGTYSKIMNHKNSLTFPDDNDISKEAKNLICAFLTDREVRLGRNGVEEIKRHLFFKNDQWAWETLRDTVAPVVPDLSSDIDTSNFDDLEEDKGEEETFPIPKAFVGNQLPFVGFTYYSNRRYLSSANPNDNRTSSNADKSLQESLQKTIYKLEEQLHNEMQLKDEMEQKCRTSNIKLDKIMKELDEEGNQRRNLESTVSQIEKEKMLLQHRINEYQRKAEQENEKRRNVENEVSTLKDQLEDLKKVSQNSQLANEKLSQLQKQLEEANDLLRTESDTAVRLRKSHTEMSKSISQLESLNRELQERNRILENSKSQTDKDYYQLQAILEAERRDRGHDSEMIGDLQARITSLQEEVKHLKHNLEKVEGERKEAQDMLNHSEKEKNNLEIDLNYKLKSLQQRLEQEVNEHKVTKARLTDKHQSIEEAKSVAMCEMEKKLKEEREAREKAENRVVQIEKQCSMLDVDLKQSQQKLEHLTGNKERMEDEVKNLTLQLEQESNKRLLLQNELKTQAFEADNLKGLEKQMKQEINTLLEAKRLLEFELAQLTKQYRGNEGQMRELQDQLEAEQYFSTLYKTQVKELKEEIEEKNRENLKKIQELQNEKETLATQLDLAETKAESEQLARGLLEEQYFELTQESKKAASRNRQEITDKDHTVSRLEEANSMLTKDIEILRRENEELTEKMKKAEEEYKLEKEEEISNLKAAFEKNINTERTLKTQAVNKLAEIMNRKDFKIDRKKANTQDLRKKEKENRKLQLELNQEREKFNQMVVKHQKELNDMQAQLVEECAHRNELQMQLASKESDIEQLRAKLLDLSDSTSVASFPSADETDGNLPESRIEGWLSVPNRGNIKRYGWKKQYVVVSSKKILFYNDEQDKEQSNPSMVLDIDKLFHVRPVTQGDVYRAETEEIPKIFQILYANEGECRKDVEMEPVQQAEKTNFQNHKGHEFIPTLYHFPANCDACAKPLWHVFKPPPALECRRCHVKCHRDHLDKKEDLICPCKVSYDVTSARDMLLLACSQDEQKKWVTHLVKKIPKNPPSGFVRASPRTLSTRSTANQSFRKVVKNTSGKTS

Nc1ncnc2c1ncn2[C@@H]1O[C@H](COC(=O)NCCCc2nc3ccccc3[nH]2)[C@@H](O)[C@H]1O [Compound C1]
inhibition at 10 µM (PRKCB1 (PKC beta I)): 6%
inhibition at 10 µM (ROCK1): 18%
inhibition at 10 µM (PRKACA (PKA)): 21%
inhibition at 10 µM (FLT3): 6%
inhibition at 10 µM (INSR): 0%
inhibition at 10 µM (KDR (VEGFR2)): -6%
inhibition at 10 µM (RPS6KA3 (RSK2)): 8%

CN1CCN(CCNC(=O)OC[C@H]2O[C@@H](n3cnc4c(N)ncnc43)[C@H](O)[C@@H]2O)CC1 [Compound C46]
inhibition at 10 µM (PRKCB1 (PKC beta I)): 0%
inhibition at 10 µM (ROCK1): -3%
inhibition at 10 µM (PRKACA (PKA)): 3%
inhibition at 10 µM (FLT3): 10%
inhibition at 10 µM (INSR): 0%
inhibition at 10 µM (KDR (VEGFR2)): -7%
inhibition at 10 µM (RPS6KA3 (RSK2)): 6%

Nc1ncnc2c1ncn2[C@@H]1O[C@H](COC(=O)N2CCC(Cc3ccc(F)cc3)C2)[C@@H](O)[C@H]1O (some centres unmarked) [Compound C66]
inhibition at 10 µM (PRKCB1 (PKC beta I)): 1%
inhibition at 10 µM (ROCK1): -1%
inhibition at 10 µM (PRKACA (PKA)): 1%
inhibition at 10 µM (FLT3): 20%
inhibition at 10 µM (INSR): -5%
inhibition at 10 µM (KDR (VEGFR2)): 3%
inhibition at 10 µM (RPS6KA3 (RSK2)): 6%

Nc1ncnc2c1ncn2[C@@H]1O[C@H](COC(=O)N2CCC[C@H]2CO)[C@@H](O)[C@H]1O [Compound C9]
inhibition at 10 µM (PRKCB1 (PKC beta I)): -6%
inhibition at 10 µM (ROCK1): -10%
inhibition at 10 µM (PRKACA (PKA)): -6%
inhibition at 10 µM (FLT3): 8%
inhibition at 10 µM (INSR): 4%
inhibition at 10 µM (KDR (VEGFR2)): -3%
inhibition at 10 µM (RPS6KA3 (RSK2)): 1%

Nc1ncnc2c1ncn2[C@@H]1O[C@H](COC(=O)NCCN2CCCC2=O)[C@@H](O)[C@H]1O [Compound C22]
inhibition at 10 µM (PRKCB1 (PKC beta I)): -8%
inhibition at 10 µM (ROCK1): -7%
inhibition at 10 µM (PRKACA (PKA)): 0%
inhibition at 10 µM (FLT3): 9%
inhibition at 10 µM (INSR): -5%
inhibition at 10 µM (KDR (VEGFR2)): -7%
inhibition at 10 µM (RPS6KA3 (RSK2)): 2%
